Reference: publication PMC5004841, “Development of a rapid phenotypic test for HCV protease inhibitors with potential use in clinical decisions” (Genetics and Molecular Biology, 2016)

Tests used:
[1] = target: T1, HCV genotype 1b NS3-4A protease WT (Hepatitis C virus genotype 1b, UniProt Q9WMX2); test: FRET enzyme inhibition assay, NS3 WT (SensoLyte 520 HCV protease assay Kit); format: biochemical, hepatitis C virus (HCV) genotype 1b
T1 construct: covalently joined to the NS3 protease domain (aa 1-182) via an amino acid linker GSGS; 6x histidine tag (N); TEV protease cleavage site (N); NS4A central peptide (NS4A aa 21-32), fused N-terminally of NS3; made in house; host or cells: E. coli BL21 (λDE3)
T1 sequence (Q9WMX2 1027-1208 limits assumed): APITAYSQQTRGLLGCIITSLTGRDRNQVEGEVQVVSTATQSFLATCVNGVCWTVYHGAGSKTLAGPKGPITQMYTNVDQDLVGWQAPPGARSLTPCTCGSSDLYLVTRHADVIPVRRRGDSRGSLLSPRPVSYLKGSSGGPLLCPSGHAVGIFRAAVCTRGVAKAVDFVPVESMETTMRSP
Source text: (§1) The HCV genotype 1b NS3-4A protease domain from the plasmid pFKI389 Luc-ubi-neo/NS3-3'/ET (kindly provided by Dr. Ralf Bartenschlager) was amplified with the antisense primer 5'-[…]-3'containing a BamHI enzyme restriction site and the sense primer 5'-[…]-3' containing a HindIII enzyme restriction site. This fragment was cloned into a pET21dhis-TEV bacterial expression vector (a pET21d plasmid, which was modified to codify a 6x histidine tag followed by a cleavage site recognized by the Tobacco Etch virus nTev protease at the protein N-terminus). The single chain NS3-4A protease contains the protease domain (182 amino acids) and a 20-aa portion of the cofactor NS4A ([Abrahim-Vieira et al., 2014]).
Protein expressions were carried out as described previously with some modifications to simplify techniques and to perform the protocol in a smaller inoculum volume ([Abrahim-Vieira et al., 2014]). Transformed BL21 (λDE3) cells were grown at 37°C in 500 mL of LB medium containing […] ampicilin until an OD600 of 0.6-0.8 was reached. Then, cultures were induced with 0.5 mM isopropyl-1-thio-β-D-galactopyranoside (IPTG) and incubated with shaking at 25 °C for 4 h. Cells expressing NS3-4A constructs were harvested by centrifugation and stored at −80 °C. […] Purified NS3-4A constructs were quantified with Micro BCA Protein Assay Kit (Thermo Scientific). […]

[2] = system: HCV NS3-4A protease V158I; settings: mutant V158I vs NS3 WT
Source text: as §1
(§2) Protein expressions were carried out as described previously with some modifications to simplify techniques and to perform the protocol in a smaller inoculum volume ([Abrahim-Vieira et al., 2014]). Transformed BL21 (λDE3) cells were grown at 37°C in 500 mL of LB medium containing […] ampicilin until an OD600 of 0.6-0.8 was reached. Then, cultures were induced with 0.5 mM isopropyl-1-thio-β-D-galactopyranoside (IPTG) and incubated with shaking at 25 °C for 4 h. Cells expressing NS3-4A constructs were harvested by centrifugation and stored at −80 °C. All resuspension steps were performed at 4 °C. Frozen pellets were resuspended in 12.5 mL of buffer A (Tris-HCl 50 mM pH 7.5; NaCl 300 mM; 2 mM β-mercaptoethanol; 10% glycerol; 0.5% Triton X-100). After resuspension, lysates were treated with lysozyme (5 mg/mL) for 1 h with stirring, subjected to 20 cycles of 15 s of sonication and 30 s of resting. Lysates were cleared by centrifugation at 12.000 g for 30 min and the supernatant filtered with 0.22 μM filter units (Nalgene). After filtration, supernatants were applied in 2 mL of Ni-NTA Agarose (Life Technologies) previously washed with distilled water and equilibrated with buffer A. Agarose resin was washed three times with buffer A and recombinant proteins were eluted with buffer A with 125, 250 and 500 mM imidazol (buffer B). […] Fractions were pooled and dialyzed overnight against buffer A with SnakeSkin Dialysis Tubing 10K MWCO (Thermo Scientific). Purified NS3-4A constructs were quantified with Micro BCA Protein Assay Kit (Thermo Scientific).
(§3) All enzyme inhibition assays were performed in nonbinding black surface 96-well plates (Corning).

HCV NS3-4A protease T54A = settings: mutant T54A vs NS3 WT
Source text: as §1, §2, §3

[3] = system: HCV NS3-4A protease T54S + V170I; settings: mutant T54S + V170I vs NS3 WT
Source text: as §1, §2, §3

[4] = system: HCV NS3-4A protease V170I; settings: mutant V170I vs NS3 WT
Source text: as §1, §2, §3

HCV NS3-4A protease V36M = settings: mutant V36M vs NS3 WT
Source text: as §1, §2, §3

Compound: COc1ccc2c(O[C@@H]3C[C@H]4C(=O)N[C@]5(C(=O)NS(=O)(=O)C6CC6)C[C@H]5/C=C\CCCCN(C)C(=O)[C@@H]4C3)cc(-c3nc(C(C)C)cs3)nc2c1C [Simeprevir]
- IC50 [1]: 17 nM
- fold change (mutant IC50 median/WT IC50 median) [2]: 0.1 fold
- fold change (mutant IC50 median/WT IC50 median) (HCV NS3-4A protease T54A): 6.3 fold
- fold change (mutant IC50 median/WT IC50 median) [3]: 3.8 fold
- fold change (mutant IC50 median/WT IC50 median) [4]: 3.2 fold
- fold change (mutant IC50 median/WT IC50 median) (HCV NS3-4A protease V36M): 0.4 fold

Compound: CCC[C@H](NC(=O)[C@@H]1[C@H]2CCC[C@H]2CN1C(=O)[C@@H](NC(=O)[C@@H](NC(=O)c1cnccn1)C1CCCCC1)C(C)(C)C)C(=O)C(=O)NC1CC1 [Telaprevir]
- IC50 [1]: 130 nM
